Holding throughout (type): cell-based
The subject of test [1] is HAP1 MTAP-intact cell line. The experiment in a line: SDMA in-cell western assay, HAP1 MTAP-intact. The following applies: Homo sapiens. An excerpt: (§1) Table 1 also indicates IC50 values in an MTAP-isogenic cell line pair for exemplary compounds in an SDMA in-cell western assay (columns 7-8). HAP1 MTAP-intact is a cell line in which endogenous levels of MTAP are expressed, and HAP1 MTAP-deleted is an MTAP-null cell line.

The subject of test [2] is HAP1 MTAP-deleted cell line. Nature of the test: Viability assay, MTAP-deleted cell line. The following applies: Homo sapiens. An excerpt: Table 1 additionally indicates IC50 values in a viability assay for the MTAP-deleted cell line (column 10), indicating the effect of treatment with compound on cell survival.
The subject of test [3] is HAP1 MTAP-deleted cell line. The experiment in a line: SDMA in-cell western assay, HAP1 MTAP-deleted. Conditions: for IC50: Homo sapiens; for MTAP intact/deleted ratio: IC50 ratio HAP1 MTAP-intact / HAP1 MTAP-deleted, SDMA in-cell western.
From the text: as §1

Where [4] appears, read: HAP1, read-out: MTAP HAP1 intact IC50.
The mark [5] stands for this setting: HAP1, read-out: HAP1 MTAP deleted viability.
[6] abbreviates: HAP1, read-out: HAP1 MTAP deleted IC50.
Setting [7] is: HAP1, SDMA in-cell western, HAP1 MTAP-intact, read-out: MTAP HAP1 intact IC50.
[8] abbreviates: HAP1, viability IC50, MTAP-deleted cell line, read-out: HAP1 MTAP deleted viability.
Where [9] appears, read: HAP1, SDMA in-cell western, HAP1 MTAP-deleted, read-out: HAP 1 MTAP deleted IC50.

Structures are written as SMILES. Structures can show the parent of a compound that is named as a salt. Where two headings read alike, the source gives them in different places.

On to `C[C@@H]1CC[C@@H](c2ccc(O)cc2)N(C(=O)C(=O)Nc2cncc(C(N)=O)c2)C1` (single isomer, unassigned) [Compound 297], for which the IC50 in test [1] (setting [4]) is greater than 1000 nM; in test [2] (setting [5]) it was greater than 10000 nM; in test [3] (setting [6]), greater than 1000 nM.

As to `Cc1cc(NC(=O)C(=O)N2C[C@@H](C)CC[C@@H]2c2ccc3c(c2)CCC(=O)N3)cnc1N` (single isomer, unassigned) [Compound 502], the IC50 in test [1] (setting [4]) was 100 to 1000 nM; in test [2] (setting [5]) it was less than 1000 nM; in test [3] (setting [6]) it was less than 100 nM.

`Cc1cc(NC(=O)C(=O)N2C[C@@H](C)CC[C@@H]2c2ccccc2)cnc1N` (single isomer, unassigned) [Compound 33]: the results for the IC50 in test [1] (setting [4]), in test [2] (setting [5]) and in test [3] (setting [6]) were 100 to 1000 nM, 1000 to 10000 nM and less than 100 nM, respectively.

Turning to `Cc1cc(NC(=O)C(=O)N2C[C@@H](C)CC[C@@H]2c2ccc3scnc3c2)cnc1N` [Compound 616, N-(6-amino-5-methyl-3-pyridyl)-2-[(2R,5S)-2-(1,3-benzothiazol-5-yl)-5-methyl-1-piperidyl]-2-oxo-acetamide], the values for the IC50 in test [1] (setting [4]), in test [2] (setting [5]) and in test [3] (setting [6]) were 100 to 1000 nM, less than 1000 nM and less than 100 nM, respectively.

For the molecule `Cc1cc([C@H]2CC[C@H](C)CN2C(=O)C(=O)Nc2cncc(C(N)=O)c2)cc2cn[nH]c12` (relative stereo) [Compound 638, 5-[[2-[(2R,5S)-5-methyl-2-(7-methyl-1H-indazol-5-yl)-1-piperidyl]-2-oxo-acetyl]amino]pyridine-3-carboxamide], the IC50 in test [1] (setting [7]) is greater than 1000 nM; in test [2] (setting [8]), 1000 to 10000 nM; in test [3] (setting [9]), less than 100 nM. In addition, the MTAP intact/deleted ratio entry in test [3] was “A (an IC50 ratio greater than or equal to 10 fold)”.

On to `C[C@H]1CC[C@@H](c2ccccc2)N(C(=O)C(=O)Nc2cncc(C(N)=O)c2)C1` (single isomer, unassigned) [Compound 82], for which the results for the IC50 in test [1] (setting [4]), in test [2] (setting [5]) and in test [3] (setting [6]) were greater than 1000 nM, greater than 10000 nM and 100 to 1000 nM, respectively.

Regarding `Cc1cc(NC(=O)C(=O)N2C[C@@H](C)CC[C@@H]2c2ccc3c[nH]nc3c2)cnc1N` (stereo in doubt) [Compound 636, N-(6-amino-5-methyl-3-pyridyl)-2-[(2R,5S)-2-(1H-indazol-6-yl)-5-methyl-1-piperidyl]-2-oxo-acetamide], the figures for the IC50 in test [1] (setting [7]), in test [2] (setting [8]) and in test [3] (setting [9]) were 100 to 1000 nM, less than 1000 nM and less than 100 nM, respectively. In test [3], the MTAP intact/deleted ratio entry is “A (an IC50 ratio greater than or equal to 10 fold)”.

On to `COc1ncc(NC(=O)C(=O)N2C[C@H](C)CC[C@H]2c2ccc3sc(C)nc3c2)cc1C(N)=O` (single isomer, unassigned) [Compound 808], for which the IC50 in test [1] (setting [7]) is greater than 1000 nM; in test [2] (HAP1, viability assay, HAP1 MTAP-deleted, read-out: HAP1 MTAP deleted viability), greater than 10000 nM; in test [3] (HAP1, SDMA in-cell western, HAP1 MTAP-deleted, read-out: HAP1 MTAP deleted IC50), greater than 1000 nM.

In the case of `Cc1cc(NC(=O)C(=O)N2CCCC[C@H]2c2ccccc2)cnc1C` (single isomer, unassigned) [Compound 188], the values for the IC50 in test [1] (setting [4]), in test [2] (setting [5]) and in test [3] (setting [6]) were greater than 1000 nM, greater than 10000 nM and greater than 1000 nM, respectively.

Turning to `Cc1cc(NC(=O)C(=O)N2C[C@H](C)CC[C@H]2c2ccc3c(c2)CC(=O)N3)cnc1N` (racemic) [Compound 373, N-(6-amino-5-methyl-3-pyridyl)-2-[5-methyl-2-(2-oxoindolin-5-yl)-1-piperidyl]-2-oxo-acetamide], the IC50 in test [1] (setting [4]) was 100 to 1000 nM; in test [2] (setting [5]) it was less than 1000 nM; in test [3] (setting [6]), less than 100 nM.

Take `C[C@@H]1CC[C@@H](c2ccc3sc(C4CCN(C)CC4)nc3c2)N(C(=O)C(=O)Nc2cnc(N)c(C3CC3)c2)C1` (single isomer, unassigned) [Compound 1201]: the figures for the IC50 in test [1] (setting [4]), in test [2] (setting [5]) and in test [3] (setting [6]) were greater than 1000 nM, less than 1000 nM and 100 to 1000 nM, respectively.

With `Cc1cc(NC(=O)C(=O)N2C[C@@H](C)CC[C@@H]2c2ccc3sc(C4CCN(C)CC4)nc3c2)cnc1N` (single isomer, unassigned) [Compound 1314], the IC50 in test [1] (setting [4]) is less than 100 nM; in test [2] (setting [5]) it was less than 1000 nM; in test [3] (setting [6]), less than 100 nM.

In the case of `Cc1cc(NC(=O)C(=O)N2C[C@H](C)CC[C@H]2c2ccc3cnccc3c2)cnc1N` (single isomer, unassigned) [Compound 1000], the results for the IC50 in test [1] (setting [4]), in test [2] (setting [5]) and in test [3] (setting [6]) were 100 to 1000 nM, less than 1000 nM and less than 100 nM, respectively.

Regarding `Cc1cc(NC(=O)C(=O)N2C[C@@H](C)CC[C@@H]2c2ccc3c(c2)CC(=O)N3)cnc1N` (single isomer, unassigned) [Compound 678], the IC50 in test [1] (setting [4]) is less than 100 nM; in test [2] (setting [5]), less than 1000 nM; in test [3] (setting [6]) it was less than 100 nM.

With `C[C@H]1CC[C@H](c2ccccc2)N(C(=O)C(=O)Nc2cncc(C(N)=O)c2)C1` (single isomer, unassigned) [Compound 88], the values for the IC50 in test [1] (setting [4]), in test [2] (setting [5]) and in test [3] (setting [6]) were greater than 1000 nM, 1000 to 10000 nM and less than 100 nM, respectively.

With `C[C@@H]1CC[C@@H](c2ccc3scnc3c2)N(C(=O)C(=O)Nc2cncc(C(N)=O)c2)C1` (single isomer, unassigned) [Compound 588], the IC50 in test [1] (setting [4]) is greater than 1000 nM; in test [2] (setting [5]) it was greater than 10000 nM; in test [3] (setting [6]), greater than 1000 nM.

As to `Cc1cc(NC(=O)C(=O)N2C[C@H](C)CC[C@H]2c2ccc3sc(C4CCN(C)CC4)nc3c2)cnc1N` (single isomer, unassigned) [Compound 1293], the IC50 in test [1] (setting [4]) was 100 to 1000 nM; in test [2] (setting [5]) it was less than 1000 nM; in test [3] (setting [6]) it was less than 100 nM.

`C[C@H]1CC[C@H](c2ccc(O)cc2)N(C(=O)C(=O)Nc2cncc(C(N)=O)c2)C1` (single isomer, unassigned) [Compound 287]: the values for the IC50 in test [1] (setting [4]), in test [2] (setting [5]) and in test [3] (setting [6]) were 100 to 1000 nM, less than 1000 nM and less than 100 nM, respectively.

Consider `C[C@H]1CC[C@H](c2ccc3cnccc3c2)N(C(=O)C(=O)Nc2cncc(C(N)=O)c2)C1` (single isomer, unassigned) [Compound 885], for which the values for the IC50 in test [1] (setting [4]), in test [2] (setting [5]) and in test [3] (setting [6]) were greater than 1000 nM, greater than 10000 nM and greater than 1000 nM, respectively.

In the case of `COc1ncc(NC(=O)C(=O)N2C[C@H](C)CC[C@H]2c2ccc3sccc3c2)cc1C(N)=O` (relative stereo) [Compound 633, 5-[[2-[(2S,5R)-2-(benzothiophen-5-yl)-5-methyl-1-piperidyl]-2-oxo-acetyl]amino]-2-methoxy-pyridine-3-carboxamide], the IC50 is greater than 1000 nM in test [1] (setting [7]), greater than 10000 nM in test [2] (setting [8]) and greater than 1000 nM in test [3] (setting [9]). Moreover, in test [3], the MTAP intact/deleted ratio entry is reported as “C (an IC50 ratio of less than 3 fold)”.

Consider `Cc1cncc(NC(=O)C(=O)N2[C@H](c3ccccc3)CC[C@@H](C)[C@@H]2C)c1` (single isomer, unassigned) [Compound 39], for which the results for the IC50 in test [1] (setting [4]), in test [2] (setting [5]) and in test [3] (setting [6]) were greater than 1000 nM, greater than 10000 nM and greater than 1000 nM, respectively.

On to `[2H][C@]1(c2ccc(F)cc2)CC[C@H](C)CN1C(=O)C(=O)Nc1cnc(N)c(C)c1` (racemic) [Compound 1009, N-(6-amino-5-methylpyridin-3-yl)-2-(2-(4-fluorophenyl)-5-methylpiperidin-1-yl-2-d)-2-oxoacetamide hydrochloride], for which the IC50 in test [1] (setting [4]) is 100 to 1000 nM; in test [2] (setting [5]), 1000 to 10000 nM; in test [3] (setting [6]), less than 100 nM.

As to `Cc1cc([C@@H]2CC[C@@H](C)CN2C(=O)C(=O)Nc2cncc(C(N)=O)c2)cc2cn[nH]c12` (single isomer, unassigned) [Compound 611], the IC50 in test [1] (setting [7]) is greater than 1000 nM; in test [2] (setting [8]) it was greater than 10000 nM; in test [3] (setting [9]), greater than 1000 nM. In test [3], the MTAP intact/deleted ratio entry is on record as “C (an IC50 ratio of less than 3 fold)”.

Consider `C[C@@H]1CC[C@@H](c2ccc3[nH]cnc3c2)N(C(=O)C(=O)Nc2cncc(C(N)=O)c2)C1` (single isomer, unassigned) [Compound 344], for which the IC50 is greater than 1000 nM in test [1] (setting [4]), 1000 to 10000 nM in test [2] (setting [5]) and 100 to 1000 nM in test [3] (setting [6]).

For `Cc1cc(NC(=O)C(=O)N2C[C@H](C)CC[C@H]2c2ccc3cnccc3c2)cnc1N` (racemic) [Compound 758, N-(6-Amino-5-methyl-3-pyridyl)-2-[2-(6-isoquinolyl)-5-methyl-1-piperidyl]-2-oxo-acetamide], the results for the IC50 in test [1] (setting [4]), in test [2] (setting [5]) and in test [3] (setting [6]) were 100 to 1000 nM, less than 1000 nM and less than 100 nM, respectively.

`Cc1cc(NC(=O)C(=O)N2C[C@H](C)CC[C@H]2c2ccc(O)cc2)cnc1N` (single isomer, unassigned) [Compound 397]: the IC50 in test [1] (setting [4]) is 100 to 1000 nM; in test [2] (setting [5]), less than 1000 nM; in test [3] (setting [6]), less than 100 nM.

`C[C@H]1CC[C@H](c2ccc3sc(C4CCN(C)CC4)nc3c2)N(C(=O)C(=O)Nc2cnc(N)c(C3CC3)c2)C1` (single isomer, unassigned) [Compound 1222]: the IC50 in test [1] (setting [4]) is less than 100 nM; in test [2] (setting [5]), less than 1000 nM; in test [3] (setting [6]), less than 100 nM.

`Cc1cc(NC(=O)C(=O)N2C[C@H](C)CC[C@H]2c2ccc3sc(CN(C)C)nc3c2)cnc1N` (single isomer, unassigned) [Compound 1122]: the IC50 in test [1] (setting [4]) was less than 100 nM; in test [2] (setting [5]), less than 1000 nM; in test [3] (setting [6]), less than 100 nM.

Take `[2H]c1nc2cc([C@H]3CC[C@H](C)CN3C(=O)C(=O)Nc3cnc(N)c(C)c3)ccc2s1` [Compound 1177]: the IC50 in test [1] (setting [4]) was 100 to 1000 nM; in test [2] (setting [5]) it was less than 1000 nM; in test [3] (setting [6]) it was less than 100 nM.

(Values after patent publication US11999727B2 (Tango Therapeutics, Inc., priority 2020, dated 2024).)
